Results as given in patent publication US11344507B2, “Topical compositions containing low molecular weight chitosan derivatives” (ALUMEND, LLC, priority 2019, dated 2022).

Experiments:
[1] = tested on: IL-1α secretion by three-dimensional human epidermal equivalents (EPI-200); conditions: 24 h
Method: Test materials (30 μl) were topically applied onto three-dimensional human epidermal equivalents (EPI-200 from MatTek, Ashland, Mass.), n=3 tissues per treatment group.

[2] = tested on: IL-1α secretion by three-dimensional human epidermal equivalents (EPI-200)
[3] = tested on: three-dimensional human epidermal equivalents (EPI-200); assay: In vitro Skin Irritation Test, SDS-induced irritation: MTT tissue viability; conditions: for Mean of viability (%): MTT after 42 hr post-exposure

SMILES | IL-1α (pg/mL) = Average IL1α (pg/mL) treated tissue minus Average IL1α (pg/mL) negative control [1] [pg/mL] | irritant classification by IL-1α results [2] | Mean of viability (%) ([3]; 0.2% SDS, alone or applied after dried 1% OsC) | Mean of viability (%) ([3]; 0.4% SDS, alone or applied after dried 1% OsC) | Mean of viability (%) ([3]; 0.6% SDS, alone or applied after dried 1% OsC) | irritant classification by MTT assay (cut-off 50% viability) ([3]; 0.6% SDS, alone or combined with OsC) | Mean of viability (%) ([3]; test agent alone (OsC 1%; PC = 5% SDS))
CC1=C(/C=C/C(C)=C/C=C/C(C)=C/CO)C(C)(C)CCC1 [Retinol, retinol] | 98.301 |  |  |  |  |  | 
CCCCCCCCCCCCOS(=O)(=O)[O-].[Na+] [SDS, sodium dodecyl sulfate] |  | irritant | 74.75 | 73.04 | 19.21 | irritant | 3.12
